Source: patent US11707472B2, “Compositions for the treatment of fibrosis” (Viking Therapeutics, Inc., priority 2017, dated 2023)

What was measured:
Format in all cases: in vivo
DIO-NASH mice = experiment: DIO-NASH mice, 8 weeks oral treatment, liver fibrosis readouts (Example 1); conditions: oral once per day; for liver Picro-Sirius Red (PSR) staining (total liver collagen 1 and 3 by morphometry): Compound 1 10 mg/kg; for proportion of animals with a reduction in fibrosis score post-treatment: vs mock treated animals
Description: DIO-NASH mice were acclimatized for 3 weeks, with pre-treatment liver biopsy samples collected prior to acclimatization. Mice were randomly assigned to one of five dosing groups, with 12 mice per group. Assigned dosages were: Compound 2 (low): 3 mg/kg; Compound 2 (high): 10 mg/kg; Compound 1: 10 mg/kg; and Elafibranor (30 mg·kg). One group was mock treated with vehicle only as a control. Dosage forms were administered orally once per day. After 8 weeks, animals were sacrificed and liver samples were taken. Liver samples were assayed for total liver hydroxyproline, and subjected to immunohistochemical observation for fibrosis stage as well as the extent of Cola1 (Collagen Type Ia) staining. […] Since hydroxyproline is a significant component of collagen, and collagen is the most significant source of hydroxyproline in animal tissues, levels of hydroxyproline provide a reliable proxy for the presence of collagen in a sample.
Terminal liver biopsy samples were also subjected to histochemical staining and immunohistochemical staining. Representative images of liver stained with Picro-Sirius Red (to visualize collagen I and III deposition, red stain) at the end of the treatment period following 8 weeks of treatment with vehicle, low dose Compound 2, high dose Compound 2, Compound 1, or elafibranor are shown in FIG. 2. […] Representative images of liver stained with anti-type I collagen (col1a1) (Southern Biotech, Cat. 131001) at the end of the treatment period following 8 weeks of treatment with vehicle, low dose Compound 2, high dose Compound 2, Compound 1, or elafibranor are shown in FIG. 3. The extent of ColA1 content was calculated as the total liver ColA1 staining in terminal liver biopsy samples.
Fibrosis scores were also calculated based on observation of terminal liver biopsy samples.

nude mice = experiment: palmar fascia fibrosis induced by Dupuytren's disease fibroblasts (second Example 2); conditions: nude mice forepaw biopsies, 6-10 weeks treatment; relative to levels prior to administration
From the text: Palmar fascia fibrosis is induced in nude mice by introducing fibroblasts from fibrotic cords of Dupuytren's disease patients as described in Stish, L. et al., BMC Musculoskelet. Disord. 16: 138-148 (2015) which is hereby incorporated by reference with respect to its description of the establishment of an animal model system for the study of palmar fascia fibrosis. After the establishment of palmar fascia fibrosis in the fibroblast treated animals, test articles comprising any one of Compounds 1-4, or any other compound disclosed herein, are administered to each subject as appropriate for its formulation, daily or as appropriate, for 6-10 weeks. Unilateral forepaw biopsies are taken prior to the first administration of the test articles and again after sacrifice following the last administration of the test articles. Biopsy samples are analyzed as described in Example 1, with the addition of immunohistochemical staining for type I collagen. […] Mock treated animals show little or no reduction in fibrosis, hydroxyproline content, or Collagen III content.

[1] = tested on: diet-induced NASH mouse model; experiment: diet-induced NASH mouse model, 8-week dosing (Example 6); set-up: reduction in fibrosis (fibrosis score) / reduction in type 1 collagen deposition / reduction in hydroxyproline / reduction of expression of pro-fibrotic gene Colla1 / reduction of expression of pro-fibrotic gene Col3a1 / reduction of expression of pro-fibrotic gene αSMA / reduction of expression of pro-fibrotic gene Galectin 1: concentration or dose not given beside the values; conditions: diet-induced NASH mice, oral dosing 8 weeks
Description: Compound 2 was evaluated in a diet-induced NASH mouse model (See, e.g., Hansen, H. et al., Drug Discovery Today 22(17):1701-1718 (2017) which is hereby incorporated by reference with respect to its disclosure of diet-induced, genetic, chemical, and other NASH mouse models). […] Animals were biopsied pre-study, and only animals with NASH and fibrosis were selected for study. Selected animals were acclimatized and randomized, with experimental groups of 11-12 animals per cohort receiving oral dosing of compound 2 according to the following schedules: Daily dosing for 8 weeks; or daily dosing for week 0-1 followed by weekly dosing for weeks 2-8. At week 8, animals were sacrificed and tissues analyzed. Plasma enzymes (P-ALT (alanine aminotransferase) and P-AST (aspartate aminotransferase)), total plasma triglycerides, and total plasma cholesterol were measured, and terminal necropsy of each liver was carried out, assaying total liver biochemistry including total liver triglycerides, and total liver cholesterol, as well as histological evaluation of NAFLD activity score (done pre- and post-treatment), fibrosis stage (also done pre- and post-treatment), steatosis, Colla1 level, and galactin-3 level. Tissue samples were preserved for characterization using RNAseq; RNAseq was used to determine expression levels for genes showing differential expression in compound 2-treated vs. vehicle treated animals and/or genes known to be implicated in fibrosis.

[2] = tested on: male Dunkin-Hartley guinea pigs; experiment: bleomycin-induced pulmonary fibrosis (Example 2); conditions: guinea pig lung biopsies, 6-10 weeks treatment; relative to levels prior to administration
Description: Pulmonary fibrosis is induced in healthy male Dunkin-Hartley guinea pigs by administering bleomycin intratracheally. Control subjects are developed by intratracheal administration of saline solution. After the establishment of pulmonary fibrosis in the bleomycin treated animals, test articles comprising any one of Compounds 1-4, or any other compound disclosed herein, are administered to each subject as appropriate for its formulation, daily or as appropriate, for 6-10 weeks. Unilateral lung biopsies are taken prior to the first administration of the test articles and again after sacrifice following the last administration of the test articles. Biopsy samples are analyzed as described in Example I, with the addition of immunohistochemical staining for type III collagen. […] Mock treated animals show little or no reduction in fibrosis, hydroxyproline content, or Collagen III content.

[3] = tested on: Phosphorylase kinase deficient mice (PhKc−/−); experiment: GSD-8/9-like hepatic symptoms in PhKc-/- mice (Example 5); conditions: PhKc−/− mice liver biopsies, 6-10 weeks treatment; relative to levels prior to administration
Description: (§1) Phosphorylase kinase deficient mice that manifest GSD-8/9-like hepatic symptoms, including hypercholesterolemia and hyperlipidemia (PhKc−/−, see, e.g., Varsanyi, M. et al., Biochem. Genet. 18(3-4):247-61 (1980)), are treated with test articles comprising any one of Compounds 1-4, or any other compound disclosed herein, administered to each subject as appropriate for its formulation, daily or as appropriate, for 6-10 weeks. Liver biopsies are taken prior to the first administration of the test articles and again after sacrifice following the last administration of the test articles. […] Mock treated animals show little or no reduction in fibrosis, hydroxyproline content, or Collagen I content.

[4] = tested on: Sprague-Dawley Rats or C57BL mice; experiment: hypertrophic skin lesions induced by capsaicin, CCl4 and/or bleomycin (Example 3); conditions: rat or mouse skin biopsies, 6-10 weeks treatment; relative to levels prior to administration
From the text: Hypertrophic skin lesions are induced in Sprague-Dawley Rats by subcutaneous injection of capsaicin as described in Wallengren, J. et al., Skin Pharm. Appl. Skin Physiol. 15(3):154-165 (2002), which is hereby incorporated by reference with respect to its description of the induction of hypertrophic skin lesions in rats; or in C57BL or other appropriate strain mice by subcutaneous administration of CCl4 and/or bleomycin, as described in Alonso-Merino et al., Proc. Nat. Acad. Sci. 113(24):E3451-60 (2016), which is incorporated herein for its disclosure of the induction of fibrotic skin lesions in mice. After the establishment of hypertrophic skin lesions in the capsaicin, CCl4 and/or bleomycin treated animals, test articles comprising any one of Compounds 1-4, or any other compound disclosed herein, are administered to each subject animal as appropriate for its formulation, daily or as appropriate, for 6-10 weeks. Skin biopsies from the injection site are taken prior to the first administration of the test articles and again after sacrifice following the last administration of the test articles. Biopsy samples are analyzed as described in Example I, with the addition of immunohistochemical staining for type III collagen. […] Mock treated animals show little or no reduction in fibrosis, hydroxyproline content, or Collagen III content.

[5] = tested on: Glucose-6-phosphatase-α deficient mice (Agl−/−); experiment: GSD-3-like hepatic symptoms in Agl-/- mice (Example 4); conditions: Agl−/− mice liver biopsies, 6-10 weeks treatment; relative to levels prior to administration
Description: as §1, with “Glucose-6-phosphatase-α” for “Phosphorylase kinase”, “GSD-3-like” for “GSD-8/9-like”, “(Agl−/−, see e.g. Liu, K.” for “(PhKc−/−, see, e.g., Varsanyi,”, “Mol.” for “Biochem.”, “Metabol. 111(4):467-76 (2014))” for “18(3-4):247-61 (1980)),”

[6] = Compound 2 3 and 10 mg/kg, vs elafibranor (control) and vehicle (mock)
[7] = liver RNAseq, FIG. 8, vs vehicle-treated controls
[8] = liver, FIG. 7, relative to pre-treatment samples

`Cc1cc(OCP(=O)(OCOC(=O)C(C)(C)C)OCOC(=O)C(C)(C)C)cc(C)c1Cc1ccc(O)c(Cc2ccccc2)c1` [Compound 1] was tested, and the “liver Picro-Sirius Red (PSR) staining (total liver collagen 1 and 3 by morphometry)” value (DIO-NASH mice; [6]) was “lower PSR staining than those from mock-treated animals” and the “proportion of animals with a reduction in fibrosis score post-treatment” value (DIO-NASH mice) was “higher proportion”.

`Cc1cc(OCP2(=O)OCC[C@@H](c3cccc(Cl)c3)O2)cc(C)c1Cc1ccc(O)c(C(C)C)c1` (stereo partly shown) [Compound 2] was tested, and the “palmar fascia Collagen III staining” value (nude mice) was “decreased”, the “palmar fascia fibrosis score” value (nude mice) was “decreased” and the “palmar fascia hydroxyproline levels” value (nude mice) was “reduced levels”. The “NAS scores (NAFLD activity score)” value [1] was “significant improvements”, the toxicity [1] was “No significant toxicity” and the “reduction of total lipid content in the liver” value ([1]; FIG. 6, vs vehicle-treated controls) was “approximately 80%”. The “reduction of expression of pro-fibrotic gene Col3a1” value [1, 7] was 27.1%, the “reduction of expression of pro-fibrotic gene Colla1” value [1, 7] was 36.3% and the “reduction of expression of pro-fibrotic gene Galectin 1” value [1, 7] was 64.7%. For the same molecule, the “reduction of expression of pro-fibrotic gene αSMA” value [1, 7] was 37%, the “reduction in fibrosis (fibrosis score)” value [1, 8] was 50.2% and the reduction in hydroxyproline [1, 8] was 46.3%. For the same molecule, the “reduction in type 1 collagen deposition” value [1, 8] was 60.2%, the liver cholesterol ([1]; relative to untreated controls) was “Significant reductions” and the liver triglycerides ([1]; relative to untreated controls) was “Significant reductions”. For the same molecule, the “lung Collagen III staining” value [2] was “decreased”, the lung fibrosis score [2] was “decreased” and the lung hydroxyproline levels [2] was “reduced levels”. The “liver Collagen I staining” value [3] was “decreased”, the liver fibrosis score [3] was “decreased” and the liver hydroxyproline levels [3] was “reduced levels”. For the same molecule, the “animals with increases in fibrosis score post-treatment” value (DIO-NASH mice) was “No Compound 2-treated animals showed increases”, the “liver Picro-Sirius Red (PSR) staining (total liver collagen 1 and 3 by morphometry)” value (DIO-NASH mice; [6]) was “lower PSR staining than control-treated or mock-treated animals” and the total liver hydroxyproline (DIO-NASH mice; Compound 2 3 mg/kg (low) and 10 mg/kg (high), vs elafibranor 30 mg/kg (control) and vehicle (mock)) was “lower total liver hydroxyproline levels than control-treated or mock-treated animals”. The “total liver ColA1 content (anti-type I collagen staining)” value (DIO-NASH mice; Compound 2 3 and 10 mg/kg, terminal liver biopsy, vs elafibranor (control) and vehicle (mock)) was “lower total liver ColA1 content than control-treated or mock-treated animals”, the “proportion of animals with a reduction in fibrosis score post-treatment” value (DIO-NASH mice) was “higher proportion” and the “injection site skin Collagen III staining” value [4] was “decreased”. The “injection site skin fibrosis score” value [4] was “decreased”, the “injection site skin hydroxyproline levels” value [4] was “reduced levels” and the “liver Collagen I staining” value [5] was “decreased”. For the same molecule, the liver fibrosis score [5] was “decreased” and the liver hydroxyproline levels [5] was “reduced levels”.
